Patent US20240091203A1, “METHODS FOR TREATING NON-OBSTRUCTIVE HYPERTROPHIC CARDIOMYOPATHY” (Cytokinetics, Incorporated, priority 2022, published 2024)
Where “and” joins values, the source holds several entries; their conditions need not be identical. Identical values can stand only once. Entries after “also recorded” stand apart in the source; their conditions may differ.

Tests used:
[1] = system: patients with symptomatic non-obstructive HCM (nHCM) or HCM with MVO; test: Phase 2 trial (Example 2): patient-reported outcomes (KCCQ-CSS, SAQ-AF); assay type: in vivo, human
Source text: Health Status and Health-related Quality of Life: when available, patients completed patient-reported outcome (PRO) questionnaires prior to dosing at Day 1, at Week 6, at Week 10 and at Week 12. The following instruments were be used at these visits: by Short Form 36 physical function sub-scale (SF-36-PFS), Kansas City Cardiomyopathy Questionnaire Clinical Summary Score (KCCQ-CSS), SAQ7, PGI-C (Week 10 only), and CGI (Week 10 only).
The exploratory health status and health-related quality of life endpoints included but were not limited to change from baseline to Week 10 and a slope of change from baseline to Week 10 in: (i) T-scores for PROMIS Dyspnea Severity Short Form 10a, PROMIS Dyspnea Severity Short Form 10a with two additional items, PROMIS Fatigue Short Form 7a, and PROMIS Physical Function Short Form 8b; (ii) Norm-based T scores for SF-36 Physical Functioning subscale; (iii) Individual responses to the HCM Global Impression of Status questionnaire at baseline, Week 6, and Week 10; (iv) Individual responses to the HCM Global Impression of Change questionnaire at Week 6 and Week 10; (v) Change in KCCQ score from baseline to Week 10; and (vi) Change in SAQ7 score from baseline to Week 10.

healthy adults = test: Phase 1 pharmacodynamics by echocardiography (LVEF and other parameters, PK/PD); assay type: in vivo, human
Method: Echocardiography. For PD assessments of LVEF, echocardiograms for the SAD and MAD cohorts were interpreted by the echocardiography core laboratory and used for all data analysis and dose level review decisions while immediate local interpretation of the echocardiograms was performed for safety monitoring. […] Echocardiograms on day 3 (48 h after dosing) were obtained only if the 24 h LVEF had not returned to near or above baseline, as determined by the investigator. In the MAD cohorts, echocardiograms were obtained on day −1, pre-dose on day 1, and at 1.5 h post dose on days 2, 4, and 9, and at 1.5, 24, and 72 h post dose on day 14 (for the 5-mg and 10-mg cohorts) or on day 17 (for the 7.5-mg cohort). Echocardiograms were obtained 3 days after the last dose (on day 17 or 20) only if the participant's prior LVEF was not near or above baseline, as determined by the investigator.
All participants who received ≥1 dose of study drug and had ≥1 pre-dose and ≥1 post-dose echocardiographic measurement were included in the PD analysis set. […] Descriptive statistics of the echocardiographic parameters were generated using SAS® Version 9.3 or higher.
Dose-response analysis was performed using analysis of covariance (ANCOVA) to identify the least-squares mean difference (aficamten minus placebo). To analyze the impact of drug dose on echocardiographic parameters in the SAD and MAD cohorts, an inferential analysis was conducted on the PD analysis set using linear mixed models for repeated-measures analysis of covariance (ANCOVA). The ANCOVA used baseline value as a covariate, included treatment, time-point, and time-point-by-treatment interaction as fixed effects, and change from baseline as the dependent variable. The unstructured variance-covariance structure was used, and the model accounted for the time-point repeated measures. The ANCOVA analysis was conducted separately for each study part and for each PD parameter. The least-squares means, the difference in least squares means (active minus placebo), and the associated 2-sided 95% CIs were presented for each comparison.
Analyses of concentration ‘bin’ and exposure-response were also performed using ANCOVA. SAS® PROC MIXED was used for all comparative analyses. […] A concentration bin ANCOVA was conducted using linear mixed models for repeated-measures analyses with concentration bin group as a fixed effect, baseline PD parameters as a covariate, change from baseline as the dependent variable, and a random intercept to adjust for the repeated measures. The unstructured variance-covariance structure was used. […] The ANCOVA compared the change in PD parameters between each bin versus the pooled placebo group.
The least-squares means, the difference in least squares means (bin group minus placebo), and the associated 2-sided 95% CIs were presented for each comparison. The ANCOVA analysis was conducted separately for each study part. For all time-points at which both PK data and PD measures were available, the time-points were pooled for the analysis. […] From least to greatest, the data were then divided into 5 groups of observations (‘bins’), each consisting of 20% of the data points. Each bin was treated as a separate group.
The above analysis was then repeated using concentration as a continuous variable to estimate the exposure-response trend. Both a random intercept effect and a random concentration effect were added to the ANCOVA. The estimate of the concentration slope, with corresponding 2-sided 95% CIs, and the ANCOVA analyses were presented for each study part.
For all time-points at which both PK data and PD measures were available, the time points were pooled for the analysis. A nominal significance level of 5% was used for statistical comparisons, without adjustment for multiplicity.

[2] = SAD 50 mg (n = 11), change from baseline at […], mean

Which results are given for `CCc1nc(-c2ccc3c(c2)CC[C@H]3NC(=O)c2cnn(C)c2)no1` [aficamten, (R)—N-(5-(5-ethyl-1,2,4-oxadiazol-3-yl)-2,3-dihydro-1H-inden-1-yl)-1-methyl-1H-pyrazole-4-carboxamide]?
patients improving KCCQ-CSS by ≥5 points ([1]; 21 patients, week 10, interim): 54%; improvement in KCCQ-CSS, median (IQR) ([1]; from baseline median (IQR) 69.8 (56.8, 83.9), interim): 7.3 (−1.0, 18.8) points; patients with clinical reduction in symptom burden (KCCQ-CSS) ([1]; week 10, second interim): 58%; improvement in mean KCCQ-CSS ([1]; week 10, second interim, p<0.0001): 10.6 points; relationship of LVEF to plasma concentration of aficamten (healthy adults; MAD cohorts, bin concentration or linear regression analysis): did not reach statistical significance; suppression of LVEF versus plasma concentration (healthy adults; MAD cohorts, plasma aficamten concentrations of ≤180 ng/ml): minimal suppression of LVEF; participants with decreases in LVEF to <50% (healthy adults; Phase 1, rapidly reversible upon study drug discontinuation): Three participants; E (peak E wave velocity) (healthy adults; SAD 50 mg (n = 11), […], mean): 64 cm/s; A (peak A wave velocity), CFB (healthy adults; [2]): 2.5 cm/s; E (peak E wave velocity), CFB (healthy adults; [2]): -2.7 cm/s; Heart rate, CFB (healthy adults; [2]): 0.5 bpm; IVCT, CFB (healthy adults; [2]): 0.4 ms; IVRT, CFB (healthy adults; [2]): 0.5 ms; LAV, CFB (healthy adults; [2]): 0 mL; LV EDV, CFB (healthy adults; [2]): 6.6 mL; LV ESV, CFB (healthy adults; [2]): 8.1 mL; LV ET, CFB (healthy adults; [2]): 1.9 ms; LV SV, CFB (healthy adults; [2]): -6.2 mL; LVEF, CFB (healthy adults; [2]): −5.8%; e′ lateral, CFB (healthy adults; [2]): -1.3 cm/s; time after dosing at which LVEF <50% was noted (healthy adults; SAD 50 mg and 75 mg, 3 participants): approximately 1.5 h; participants with absolute reduction in LVEF of ≥5% from baseline (healthy adults; SAD 1-mg cohort): no participants; participants with absolute reduction in LVEF of ≥5% from baseline (healthy adults; SAD 10-mg cohort): no participants; participants with absolute reduction in LVEF of ≥5% from baseline (healthy adults; SAD 25-mg cohort): no participants; participants with reduction in LVEF to <50% (healthy adults; SAD 50-mg cohort, 2 of 11, core laboratory): 18%; reduction in LVEF from baseline, least-squares mean difference (healthy adults; SAD 50-mg cohort, […] post dose, p=0.0001): 5.5%; LVEF of the 2 participants with LVEF <50% (healthy adults; SAD 50-mg cohort, per core laboratory assessment): 48.2% and 45.5%; participants with reduction in LVEF to <50% (healthy adults; SAD 75-mg cohort, 1 of 1): 100%; participants with LVEF <45% (healthy adults; SAD cohorts, core laboratory): Only the participant in the 75-mg cohort; relationship of LVEF to plasma concentration of aficamten (healthy adults; SAD cohorts, highest bin 122 to 524 ng/ml p<0.0001, concentration-slope p=0.0027): statistically significant decrease in LVEF; also recorded: trend toward a decrease in LVEF; reduction in LVEF to <50% (healthy adults; any of the MAD cohorts, core laboratory): not observed; time for reversal of decreases in LVEF to values <50% (healthy adults; following single doses): ≤ 6 h; time for LVEF to return to baseline (healthy adults; participants whose LVEF fell below 50%): ≤ 24 h; LVEF after reduction (healthy adults; single dose of 75 mg, 1 participant): 34.1%; reduction in LVEF (healthy adults; single participant, SAD 75 mg, […] post dose): 31.5%
